Holding throughout (format): cell-based
One assay concerns the target T1, human MC4R (Homo sapiens, UniProt P32245).
T1 construct: host or cells: HEK-293 cells stably expressing the GScAMP22F split-luciferase cAMP sensor and hMC4R, G418 selection
The assay can be described thus: split-luciferase cAMP sensor assay, agonist mode (measurement window 1), hMC4R. The note with it: agonist mode; for Emax: % maximal activation, read-out: MC4R cAMP % max activation; for pEC50: HEK-293 cells stably expressing hMC4R, read-out: MC4R cAMP EC50. In short, it runs like this: (§1)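 EC50 values come from a four-parameter variable-slope fit of luminescence in measurement window 1, capturing direct peptide effects on receptor-expressing cells with a cAMP22f luciferase sensor. Cells were preloaded with 4% D-luciferin, serum-free medium; 20 μM forskolin normalized for cell number and transducer efficiency.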

The next assay has as its target T2, human MC3R (Homo sapiens, UniProt P41968).
T2 construct: expressed in transfected cells; host or cells: HEK-293 cells stably expressing the GScAMP22F split-luciferase cAMP sensor (parent reporter line from Promega); MC3R clone generated in-house, G418 selection
The assay can be described thus: split-luciferase cAMP sensor assay, agonist mode (measurement window 1), hMC3R. The note with it: for pEC50: HEK-293 cells stably expressing hMC3R, read-out: MC3R cAMP EC50; for pEC50 / Emax: agonist mode; for MC4R selectivity vs MC3R: MC4R versus MC3R; for Emax: % maximal activation, read-out: MC3R cAMP % max activation. Put shortly: as §1

A further assay deals with T3, human MC1R (Homo sapiens, UniProt Q01726).
T3 construct: expressed in transfected cells; host or cells: HEK-293 cells stably expressing hMC1R and the GScAMP22F cAMP sensor
T3 sequence (Q01726 whole entry): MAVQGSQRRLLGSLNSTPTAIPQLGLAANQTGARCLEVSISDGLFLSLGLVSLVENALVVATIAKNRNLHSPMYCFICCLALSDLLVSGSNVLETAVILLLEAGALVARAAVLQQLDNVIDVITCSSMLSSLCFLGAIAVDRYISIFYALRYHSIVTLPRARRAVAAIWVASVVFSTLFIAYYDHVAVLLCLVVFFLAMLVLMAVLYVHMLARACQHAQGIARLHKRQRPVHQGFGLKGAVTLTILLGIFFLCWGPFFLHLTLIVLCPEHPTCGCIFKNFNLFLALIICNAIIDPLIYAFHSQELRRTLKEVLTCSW
In words: split-luciferase cAMP sensor assay, agonist mode, hMC1R. To be noted: MC4R versus MC1R. The procedure: FIG. 4A-B. (A) Pharmacological properties of exemplary MC4R agonist peptides, including those with improved efficacy in the MC4R+/− mouse (CTX-1211, CTX-1227, and CTX-1228). Concentration-response agonist curves for peptides indicated at the human MC4R (red), human MC3R (blue), human MC5R (green), and human MC1R (black) were determined by a split-luciferase cAMP sensor dynamic assay in HEK-293 cells stably expressing the hMC1R, hMC3R, hMC4R, or hMC5R and the GScAMP22F cAMP sensor. Each data point represents the mean±SEM of two experiments with three replicates each per experiment. Data is normalized to the ECmax of α-MSH. (B) Same as above, for peptides representing reduced activity at the hMC1R. Inset tables indicate EC50 values for the ligand indicated for each receptor.
The assay for the determination of the cAMP response in live cells was described previously. (Yu et al., 2020, Science 368, 428-433; incorporated by reference in its entirety). Cells were seeded at a density of 20,000 cells per well using 384-well poly-D lysine-coated, clear bottom, and black-wall assay plates (Corning Inc. Corning, NJ). Cells were allowed to attach to the plates for 18 to 24 h after which growth media was removed and 20 μl of 4% D-luciferin (Promega) in CO2 independent, serum-free medium (Thermo Fisher Scientific) was added to each well. The luciferase substrate was allowed to permeate the cells for 120 min at 37° C. Intracellular cAMP levels were measured using an FDSS 7000EX Functional Drug Screening System (Hamamatsu Photonics, Hamamatsu, Japan) in the Center for Chemical Genomics at the Life Sciences Institute. This instrument allowed the in-line addition of test-peptides and receptor agonists while simultaneously acquiring the luminescence signal from live cells. Assay read steps were set as follows: baseline acquisition of 2 min, the addition of 10 μl of varying 3× concentrations of test-peptides or vehicle followed by 11 min measurement (measurement window 1), and 10 μl addition of 4× concentration of the endogenous melanocortin agonist α-MSH (Bachem, Bubendorf, Switzerland) followed by an additional 11 min response measurement (measurement window 2). The resulting final concentration of α-MSH was close to the respective receptor EC90 dose for each receptor. Intraplate concentration response curves for α-MSH and SHU-9119 (Phoenix Pharmaceuticals, Burlingame CA) were included as reference controls. A submaximal forskolin (20 μM) concentration was also included to serve as a normalization reference to account for cell number variations and differences in assay transducer efficiency between cell lines.
With this set up it was possible to evaluate the direct effect of the test-peptides on the MC3R and MC4R cell lines during measurement window 1, while the antagonist profile in the presence of EC90 α-MSH was determined on measurement window 2. For data analysis baseline luminescence (i.e. the maximum luminescence signal from the initial 0 to 2 min window) was subtracted from the maximum luminescence obtained during measurement window 1 (2 to 13 min) and measurement window 2 (13 to 24 min) to yield the test-peptide elicited responses. EC50 or IC50 potency values were determined by non-linear regression by fitting the data to a sigmoid four-parameter variable slope model using the GraphPad Prism version 8.4 software package (San Diego CA).

pEC50: −log10 of the molar value. Positions of bridges follow the written chain, without caps; N, C: chain ends. Non-standard residues stand in square brackets, D forms with d. Residues, ends and D or L forms follow the SMILES beside them. hCit = NC(=O)NCCCC[C@H](N)C(=O)O; 3Pal = N[C@@H](Cc1cccnc1)C(=O)O; Cit = NC(=O)NCCC[C@H](N)C(=O)O; Nle = CCCC[C@H](N)C(=O)O; Aib = CC(C)(N)C(=O)O

T2 sequence (P41968 whole entry): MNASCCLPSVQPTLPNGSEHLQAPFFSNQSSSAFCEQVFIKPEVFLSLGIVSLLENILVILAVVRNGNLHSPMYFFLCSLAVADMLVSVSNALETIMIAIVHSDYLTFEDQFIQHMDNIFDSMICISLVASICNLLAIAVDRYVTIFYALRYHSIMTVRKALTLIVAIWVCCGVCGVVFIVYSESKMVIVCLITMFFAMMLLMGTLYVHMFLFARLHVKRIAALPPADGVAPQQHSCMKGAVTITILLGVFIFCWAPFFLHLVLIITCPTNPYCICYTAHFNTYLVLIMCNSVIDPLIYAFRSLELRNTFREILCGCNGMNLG
T1 sequence (P32245 whole entry): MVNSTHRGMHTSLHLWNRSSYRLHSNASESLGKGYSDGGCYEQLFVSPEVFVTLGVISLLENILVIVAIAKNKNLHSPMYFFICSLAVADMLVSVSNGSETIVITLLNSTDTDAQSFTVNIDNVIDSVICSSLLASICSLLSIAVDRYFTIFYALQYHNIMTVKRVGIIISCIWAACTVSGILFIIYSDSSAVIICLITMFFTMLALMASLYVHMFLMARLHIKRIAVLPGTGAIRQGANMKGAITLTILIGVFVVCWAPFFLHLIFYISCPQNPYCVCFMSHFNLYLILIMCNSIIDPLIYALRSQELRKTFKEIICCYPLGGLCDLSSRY

`COc1ccc(C[C@H]2NC(=O)[C@H](CCCNC(=N)N)NC(=O)C(C)(C)NC(=O)[C@@H](NC(=O)[C@H](CCCNC(=N)N)NC(C)=O)CSSC[C@@H](C(N)=O)NC(=O)[C@H](Cc3ccccc3)NC(=O)[C@H](CCCNC(=N)N)NC2=O)cc1` [CTX-1298, Arg-cyclo(Cys-Aib-Arg-D-Tyr(4-OMe)-Arg-Phe-Cys)] (Ac-RC[Aib]R[dY](Me)RFC-NH2; disulfide 2-8 (inferred)): at human MC4R, the Emax was 93% and the pEC50 was 8.48. Besides, on human MC3R, the negative logarithm of the EC50 (pEC50) was less than 5.00 and the “MC4R selectivity vs MC3R” value was 0.93. Moreover, on human MC1R, the “MC4R selectivity vs MC1R” value was 0.12.
On to `CCCC[C@H](NC(=O)[C@H](CCCNC(=N)N)NC(C)=O)C(=O)N[C@H]1CSSC[C@@H](C(N)=O)NC(=O)[C@@H](Cc2c[nH]c3ccccc23)NC(=O)[C@H](CCCNC(=N)N)NC(=O)[C@@H](Cc2ccccc2)NC(=O)[C@H](CCCNC(N)=O)NC1=O` [CTX-1608, Arg-Nle-cyclo(Cys-Cit-D-Phe-Arg-D-Trp-Cys)] (Ac-R[Nle]C[Cit][dF]R[dW]C-NH2; disulfide 3-8 (inferred)), for which, on human MC4R, the Emax came out at 79% and the pEC50 was 6.54. For the same compound, at human MC3R, the Emax stood at 19% and the “MC4R selectivity vs MC3R” value is recorded as 0.95. For the same compound, the “MC4R selectivity vs MC1R” value on human MC1R is reported as 2.07.
In the same order, the values of `CC1(C)NC(=O)CSC[C@@H](C(N)=O)NC(=O)[C@H](Cc2ccccc2)NC(=O)[C@H](CCCNC(=N)N)NC(=O)[C@@H](Cc2ccccc2)NC(=O)[C@H](Cc2c[nH]cn2)NC1=O` [CTX-1650, Thioether-cyclo(Aib-His-D-Phe-Arg-Phe-Cys)] ({CH2CO}-[Aib]H[dF]RFC-NH2; thioether N-6) are 113%, 6.54, 125%, 53 and 0.95.
As for `CC(=O)N[C@H]1CSSC[C@@H](C(N)=O)NC(=O)[C@H](Cc2c[nH]c3ccccc23)NC(=O)[C@H](CCCNC(=N)N)NC(=O)[C@@H](Cc2ccccc2)NC(=O)[C@H](CCCNC(N)=O)NC(=O)[C@@H](C)NC1=O` [CTX-1628, cyclo(Cys-D-Ala-Cit-D-Phe-Arg-Trp-Cys)] (Ac-C[dA][Cit][dF]RWC-NH2; disulfide 1-7 (inferred)), on human MC4R, the Emax turned out to be 99% and the negative logarithm of the EC50 (pEC50) was 7.85. In addition, on human MC3R, the Emax was 45% and the “MC4R selectivity vs MC3R” value is 6.37. In addition, the “MC4R selectivity vs MC1R” value on human MC1R is 191.
As to `C[C@H]1NC(=O)CSC[C@@H](C(N)=O)NC(=O)[C@H](Cc2ccccc2)NC(=O)[C@H](CCCNC(=N)N)NC(=O)[C@@H](Cc2ccccc2)NC(=O)[C@H](CCCNC(N)=O)NC1=O` [CTX-1658, Thioether-cyclo(D-Ala-Cit-D-Phe-Arg-Phe-Cys)] ({CH2CO}-[dA][Cit][dF]RFC-NH2; thioether N-6), the negative-log EC50 (pEC50) on human MC4R was less than 5.00. For the same compound, at human MC3R, the pEC50 was less than 5.00 and the “MC4R selectivity vs MC3R” value is listed as “Not active”. Further, the “MC4R selectivity vs MC1R” value on human MC1R is “Not active”.
In the case of `N=C(N)NCCC[C@@H]1NC(=O)[C@@H](Cc2ccccc2)NC(=O)[C@H](Cc2c[nH]cn2)NC(=O)CNC(=O)CSC[C@@H](C(N)=O)NC(=O)[C@H](Cc2c[nH]c3ccccc23)NC1=O` [CTX-1644, Thioether-cyclo(Gly-His-D-Phe-Arg-Trp-Cys)] ({CH2CO}-GH[dF]RWC-NH2; thioether N-6), at human MC4R, the Emax amounted to 111% and the negative logarithm of the EC50 (pEC50) is 8.64. Besides, at human MC3R, the Emax was found to be 107% and the “MC4R selectivity vs MC3R” value is reported as 53. Besides, the “MC4R selectivity vs MC1R” value at human MC1R was determined as 4.84.
Regarding `CC(=O)N[C@@H](CCCNC(=N)N)C(=O)N[C@H]1CSSC[C@@H](C(N)=O)NC(=O)[C@H](Cc2ccccc2)NC(=O)[C@H](CCCNC(=N)N)NC(=O)[C@@H](Cc2ccccc2)NC(=O)[C@H](CCCCNC(N)=O)NC(=O)C(C)(C)NC1=O` [CTX-1603, Arg-cyclo(Cys-Aib-homo-Cit-D-Phe-Arg-Phe-Cys)] (Ac-RC[Aib][hCit][dF]RFC-NH2; disulfide 2-8 (inferred)), the Emax on human MC4R was 91%. On human MC3R, the pEC50 is less than 5.00 and the “MC4R selectivity vs MC3R” value is given as more than 18. Also, the “MC4R selectivity vs MC1R” value at human MC1R came out at 2.46.
In the case of `CC(=O)N[C@@H](CCCNC(=N)N)C(=O)N[C@H]1CSSC[C@@H](C(N)=O)NC(=O)[C@@H](Cc2c[nH]c3ccccc23)NC(=O)[C@H](CCCNC(N)=O)NC(=O)[C@@H](Cc2ccccc2)NC(=O)[C@H](CCCNC(=N)N)NC(=O)[C@@H](C)NC1=O` [CTX-1281, Arg-cyclo(Cys-D-Ala-Arg-D-Phe-Cit-D-Trp-Cys)] (Ac-RC[dA]R[dF][Cit][dW]C-NH2; disulfide 2-8 (inferred)), the Emax on human MC4R was 92%. Besides, at human MC3R, the Emax turned out to be 44%, the negative-log EC50 (pEC50) was 7.55 and the “MC4R selectivity vs MC3R” value came to 0.29. Further, the “MC4R selectivity vs MC1R” value on human MC1R is 0.44.
Regarding `CC(=O)N[C@@H](CCCNC(=N)N)C(=O)N[C@H]1CSSC[C@@H](C(N)=O)NC(=O)[C@H](Cc2ccccc2)NC(=O)[C@H](CCCNC(=N)N)NC(=O)[C@@H](Cc2ccccc2)NC(=O)[C@H](Cc2cccnc2)NC(=O)C(C)(C)NC1=O` [CTX-1605, Arg-cyclo(Cys-Aib-Pal(3′)-D-Phe-Arg-Phe-Cys)] (Ac-RC[Aib][3Pal][dF]RFC-NH2; disulfide 2-8 (inferred)), at human MC4R, the Emax was determined as 85%. Moreover, on human MC3R, the negative logarithm of the EC50 (pEC50) was less than 5.00 and the “MC4R selectivity vs MC3R” value was more than 300. On human MC1R, the “MC4R selectivity vs MC1R” value was determined as 0.14.
In the case of `CC(=O)N[C@@H](CCCNC(=N)N)C(=O)N[C@H]1CSSC[C@@H](C(N)=O)NC(=O)[C@H](Cc2c[nH]c3ccccc23)NC(=O)[C@H](CCCNC(=N)N)NC(=O)[C@@H](Cc2ccccc2)NC(=O)[C@H](CCCNC(N)=O)NC(=O)CNC1=O` [CTX-1294, Arg-cyclo(Cys-Gly-Cit-D-Phe-Arg-Trp-Cys)] (Ac-RCG[Cit][dF]RWC-NH2; disulfide 2-8 (inferred)), the figures for the Emax on human MC4R and on human MC3R were 102% and 33%, respectively. For the same compound, the “MC4R selectivity vs MC3R” value at human MC3R is reported as 11. In addition, the “MC4R selectivity vs MC1R” value at human MC1R is 111.
As for `CCCC[C@H](NC(=O)[C@H](CCCNC(=N)N)NC(C)=O)C(=O)N[C@H]1CSSC[C@@H](C(N)=O)NC(=O)[C@H](Cc2ccccc2)NC(=O)[C@H](CCCNC(=N)N)NC(=O)[C@@H](Cc2ccc(OC)cc2)NC(=O)[C@H](CCCNC(=N)N)NC1=O` [CTX-1624, Arg-Nle-cyclo(Cys-Arg-D-Tyr(4-OMe)-Arg-Phe-Cys)] (Ac-R[Nle]CR[dY](Me)RFC-NH2; disulfide 3-8 (inferred)), on human MC4R, the Emax was determined as 83% and the pEC50 was 7.92. At human MC3R, the Emax was 66% and the “MC4R selectivity vs MC3R” value stood at 0.47. For the same compound, the “MC4R selectivity vs MC1R” value on human MC1R was 0.15.

As usually defined, the pEC50 is the negative decadic logarithm of the EC50, by convention in mol/L.
